Laboratory results reported in ChEMBL document CHEMBL4814073, “Ring-opening of five-membered heterocycles conjugated 4-isopropylresorcinol scaffold-based benzamides as HSP90 inhibitors suppressing tumor growth in vitro and in vivo” (Eur J Med Chem, 2021).
Activity calls are given as the source filed them. No cut-off for these calls is given here.

Legend:
[1] = Cmax in Sprague-Dawley rat at 2 mg/kg, iv measured after 1 hrs by LC-MS/MS analysis; type: ADME, organism-based; parameters: route intravenous, time 1 hrs, dose 2 mg/kg; conditions: in vivo
[2] = Metabolic stability in human hepatocytes assessed as Intrinsic clearance by LC-MS/MS analysis; type: ADME, cell-based, Hepatocyte
A549 [3] = assay: Induction of apoptosis in human A549 cells assessed as increase in cleaved caspase 3 protein expression at 0.3 to 3 uM measured after 18 hrs by western blot analysis; type: functional, cell-based; conditions: dose 0.3-3 µM
Heat shock protein HSP90 [4] = target: T1, Heat shock protein HSP90 (Homo sapiens, UniProt P07900+P08238); assay: Inhibition of HSP90 in human A549 cells assessed as downregulation of FAK expression at 3 uM by immunoblot analysis; type: cell-based; conditions: time hrs <=24, TDE = time-dependent effect
[5] = Toxicity in BALB/c mouse xenografted with human H1975 cells assessed as reduction in body weight at 25 to 50 mg/kg, po treated daily relative to control; conditions: in vivo
A549 [6] = assay: Antimigratory activity against human A549 cells assessed as inhibition of migration at 0.1 to 3 uM incubated for 6 hrs by crystal violet staining based by Boyden chamber method; type: functional, cell-based; conditions: dose 0.1-3 µM
Heat shock protein HSP90 [7] = target: T1, Heat shock protein HSP90; assay: Inhibition of HSP90 in human A549 cells assessed as downregulation of Akt expression incubated for 24 hrs by immunoblot analysis; type: cell-based; conditions: dose microM <=3, time 24.0 hrs
[8] = Metabolic stability in Beagle dog hepatocytes assessed as Intrinsic clearance by LC-MS/MS analysis; type: ADME, cell-based, Canis lupus familiaris, Hepatocyte
[9] = Half life in Sprague-Dawley rat at 20 mg/kg, po measured after 1 hrs by LC-MS/MS analysis; type: ADME, organism-based; conditions: in vivo
A549 [10] = assay: Induction of EGFR degradation in human A549 cells assessed as reduction in eGFR expression measured after 24 hrs by immunoblot analysis; type: functional, cell-based; conditions: dose microM <=3, time 24.0 hrs
[11] = Tmax in Sprague-Dawley rat at 2 mg/kg, iv measured after 1 hrs by LC-MS/MS analysis; type: ADME, organism-based; conditions: in vivo
A549 [12] = assay: Induction of apoptosis in human A549 cells assessed as increase in PARP cleavage at 0.3 to 3 uM measured after 18 hrs by western blot analysis; type: functional, cell-based; conditions: dose 0.3-3 µM
[13] = AUC (0 to t) in Sprague-Dawley rat at 2 mg/kg, iv measured after 1 hrs by LC-MS/MS analysis; type: ADME, organism-based; parameters: route intravenous, time 1 hrs, dose 2 mg/kg; conditions: in vivo
A549 [14] = assay: Induction of apoptosis in human A549 cells assessed as increase in cleaved caspase 7 protein expression at 0.3 to 3 uM measured after 18 hrs by western blot analysis; type: functional, cell-based; conditions: dose 0.3-3 µM
Cytochrome P450 2C8 = target: T2, Cytochrome P450 2C8 (Homo sapiens, UniProt P10632); assay: Inhibition of CYP2C8 in human liver microsomes using amodiaquine as substrate by LC-MS/MS analysis; type: ADME
T2 sequence (P10632 whole entry): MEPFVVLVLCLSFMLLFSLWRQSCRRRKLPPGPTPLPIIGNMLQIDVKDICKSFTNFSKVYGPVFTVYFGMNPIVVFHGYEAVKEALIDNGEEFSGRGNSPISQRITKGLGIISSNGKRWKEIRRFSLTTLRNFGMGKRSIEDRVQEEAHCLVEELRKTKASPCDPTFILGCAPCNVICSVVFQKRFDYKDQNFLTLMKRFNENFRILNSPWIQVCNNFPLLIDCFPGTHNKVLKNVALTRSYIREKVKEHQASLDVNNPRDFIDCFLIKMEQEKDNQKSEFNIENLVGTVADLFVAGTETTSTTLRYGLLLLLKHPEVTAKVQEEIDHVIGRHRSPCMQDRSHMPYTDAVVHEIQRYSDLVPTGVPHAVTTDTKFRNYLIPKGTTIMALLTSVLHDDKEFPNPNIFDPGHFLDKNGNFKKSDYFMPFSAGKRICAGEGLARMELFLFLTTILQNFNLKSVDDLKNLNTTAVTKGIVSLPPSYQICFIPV

[15] = Metabolic stability in human hepatocytes assessed as half life by LC-MS/MS analysis; type: ADME, cell-based, Hepatocyte
hERG (KCNH2) = hERG (KCNH2) (Homo sapiens, UniProt Q12809); assay: Inhibition of human ERG stably expressed in HEK293 cells at 10 uM measured after 60 mins by [3H]]Astemizole binding assay; type: cell-based; conditions: HEK293 cells stably expressing hERG, probe [3H]astemizole
[16] = Metabolic stability in Sprague-Dawley rat hepatocytes assessed as Intrinsic clearance by LC-MS/MS analysis; type: ADME, cell-based, Hepatocyte
[17] = Hepatic clearance in human hepatocytes by LC-MS/MS analysis
A549 [18] = assay: Induction of cell cycle arrest in human A549 cells assessed as M stage arrest by measuring upregulation of p-histone H3 (Ser10) expression at 0.3 uM incubated for 24 hrs by Western blot analysis; type: functional, cell-based
[19] = Half life in Sprague-Dawley rat at 2 mg/kg, iv measured after 1 hrs by LC-MS/MS analysis; type: ADME, organism-based; conditions: in vivo
A549 [20] = assay: Induction of cell cycle arrest in human A549 cells assessed as upregulation of cyclinB1 protein expression at 0.3 uM incubated for 24 hrs by Western blot analysis; type: functional, cell-based
[21] = Hepatic clearance in Sprague-Dawley rat by LC-MS/MS analysis; type: ADME, tissue-based, Hepatocyte; conditions: hepatocytes
[22] = Metabolic stability in CD1 mouse hepatocytes assessed as Intrinsic clearance by LC-MS/MS analysis; type: ADME, cell-based, Hepatocyte
[23] = AUC (0 to infinity) in Sprague-Dawley rat at 20 mg/kg, po measured after 1 hrs by LC-MS/MS analysis; type: ADME, organism-based; parameters: route oral, time 1 hrs, dose 20 mg/kg; conditions: in vivo
A549 [24] = assay: Antitumor activity against human A549 cells xenografted in BALB/c mouse assessed as tumor growth delay at 50 mg/kg, po treated daily relative to control
Cytochrome P450 2D6 = Cytochrome P450 2D6 (Homo sapiens, UniProt P10635); assay: Inhibition of CYP2D6 in human liver microsomes using dextromethorphan as substrate by LC-MS/MS analysis; type: ADME
Heat shock protein HSP90 [25] = target: T1, Heat shock protein HSP90; assay: Inhibition of HSP90 in human A549 cells assessed as downregulation of Akt expression at 3 uM by immunoblot analysis; type: cell-based; conditions: time hrs <=24, TDE = time-dependent effect
CYP2D6 = CYP2D6 (Homo sapiens, UniProt P10635); assay: Inhibition of CYP2D6 in human liver microsomes using dextromethorphan as substrate at 50 uM by LC-MS/MS analysis; type: ADME; conditions: probe dextromethorphan
A549 [26] = assay: Induction of cell cycle arrest in human A549 cells assessed as M stage arrest by measuring upregulation of p-MPM-2 expression at 0.3 uM incubated for 24 hrs by Western blot analysis; type: functional, cell-based
Cytochrome P450 2C19 = Cytochrome P450 2C19 (Homo sapiens, UniProt P33261); assay: Inhibition of CYP2C19 in human liver microsomes using S-mephenytoin as substrate by LC-MS/MS analysis; type: ADME
CYP2C8 = target: T3, CYP2C8 (Homo sapiens, UniProt P10632); assay: Inhibition of CYP2C8 in human liver microsomes using amodiaquine as substrate at 50 uM by LC-MS/MS analysis; type: ADME; conditions: probe amodiaquine
T3 sequence (P10632 whole entry): T2 sequence (P10632 whole entry)

NCI-H1975 = assay: Antiproliferative activity against human NCI-H1975 cells harbouring EGFR L858R/T790M mutant measured after 48 hrs by SRB assay; conditions: NCI-H1975, 48 h

CYP2D6, sequence (P10635 whole entry): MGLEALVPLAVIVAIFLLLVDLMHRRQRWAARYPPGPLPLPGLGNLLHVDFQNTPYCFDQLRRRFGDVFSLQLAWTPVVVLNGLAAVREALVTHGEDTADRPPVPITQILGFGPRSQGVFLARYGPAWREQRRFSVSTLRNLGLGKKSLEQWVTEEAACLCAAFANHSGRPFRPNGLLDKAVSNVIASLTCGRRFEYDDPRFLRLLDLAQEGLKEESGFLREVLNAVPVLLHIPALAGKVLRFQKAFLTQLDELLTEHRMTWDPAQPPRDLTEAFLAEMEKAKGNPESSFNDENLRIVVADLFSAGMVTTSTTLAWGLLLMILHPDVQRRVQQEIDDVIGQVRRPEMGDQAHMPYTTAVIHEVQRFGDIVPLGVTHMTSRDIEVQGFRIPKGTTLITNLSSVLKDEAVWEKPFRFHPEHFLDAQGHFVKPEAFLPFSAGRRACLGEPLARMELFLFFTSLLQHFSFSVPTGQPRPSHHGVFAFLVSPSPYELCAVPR
Cytochrome P450 2D6, sequence (P10635 whole entry): as above
Cytochrome P450 2C19, sequence (P33261 whole entry): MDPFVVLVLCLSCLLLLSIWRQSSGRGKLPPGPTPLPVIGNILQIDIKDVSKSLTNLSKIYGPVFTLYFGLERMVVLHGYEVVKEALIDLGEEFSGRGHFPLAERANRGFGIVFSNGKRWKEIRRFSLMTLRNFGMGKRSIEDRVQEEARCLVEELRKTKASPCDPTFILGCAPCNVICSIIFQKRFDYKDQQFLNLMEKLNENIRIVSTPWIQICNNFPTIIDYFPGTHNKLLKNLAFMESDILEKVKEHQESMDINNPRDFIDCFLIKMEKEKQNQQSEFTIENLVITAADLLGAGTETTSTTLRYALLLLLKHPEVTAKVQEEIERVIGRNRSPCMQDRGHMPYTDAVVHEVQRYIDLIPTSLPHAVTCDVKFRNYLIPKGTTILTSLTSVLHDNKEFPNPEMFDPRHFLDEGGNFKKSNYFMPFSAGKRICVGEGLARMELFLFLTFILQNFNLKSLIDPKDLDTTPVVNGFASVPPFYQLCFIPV
hERG (KCNH2), sequence (Q12809 whole entry): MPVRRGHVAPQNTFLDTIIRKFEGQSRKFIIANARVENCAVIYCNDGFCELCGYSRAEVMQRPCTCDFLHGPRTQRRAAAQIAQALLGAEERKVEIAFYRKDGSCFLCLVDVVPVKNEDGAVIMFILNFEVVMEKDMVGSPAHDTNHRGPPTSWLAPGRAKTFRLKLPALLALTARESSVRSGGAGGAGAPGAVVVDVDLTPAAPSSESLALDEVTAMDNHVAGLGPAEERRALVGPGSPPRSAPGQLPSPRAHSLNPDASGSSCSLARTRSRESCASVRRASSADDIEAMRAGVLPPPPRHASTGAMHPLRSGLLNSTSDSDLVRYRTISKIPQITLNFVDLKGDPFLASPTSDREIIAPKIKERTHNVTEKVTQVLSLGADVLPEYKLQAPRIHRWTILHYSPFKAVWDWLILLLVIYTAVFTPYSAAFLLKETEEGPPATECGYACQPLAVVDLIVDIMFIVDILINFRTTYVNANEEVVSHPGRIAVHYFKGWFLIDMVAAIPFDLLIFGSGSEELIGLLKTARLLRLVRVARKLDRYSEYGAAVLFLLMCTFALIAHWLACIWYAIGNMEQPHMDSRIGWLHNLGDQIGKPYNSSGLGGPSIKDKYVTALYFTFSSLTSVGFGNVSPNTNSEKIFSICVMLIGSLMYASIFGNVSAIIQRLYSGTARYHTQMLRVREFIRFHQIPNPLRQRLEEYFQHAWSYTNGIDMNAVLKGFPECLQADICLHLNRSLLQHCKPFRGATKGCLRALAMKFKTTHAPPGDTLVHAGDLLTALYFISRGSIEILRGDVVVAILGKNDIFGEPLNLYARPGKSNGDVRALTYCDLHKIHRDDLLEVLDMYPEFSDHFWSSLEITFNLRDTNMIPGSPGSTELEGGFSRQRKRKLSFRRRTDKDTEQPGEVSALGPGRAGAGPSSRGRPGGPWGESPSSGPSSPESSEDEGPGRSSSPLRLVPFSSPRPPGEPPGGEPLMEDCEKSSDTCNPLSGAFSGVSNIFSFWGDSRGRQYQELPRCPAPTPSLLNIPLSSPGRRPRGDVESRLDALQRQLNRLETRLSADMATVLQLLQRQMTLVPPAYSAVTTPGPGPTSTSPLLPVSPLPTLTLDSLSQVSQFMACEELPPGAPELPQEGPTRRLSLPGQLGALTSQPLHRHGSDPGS

CCN(C(=O)c1cc(C(C)C)c(O)cc1O)c1cccnc1
Cmax [1]: 1580 ng/mL | CLint [2]: 55.3 mL/min/kg | Activity (A549 [3]): Active | inhibition (Heat shock protein HSP90 [4]): Tde | Activity [5]: Non-Toxic | Activity (A549 [6]): Active | inhibition (Heat shock protein HSP90 [7]): Dose-Dependent Effect | CLint [8]: 119 mL/min/kg | half-life [9]: 16.4 h | Activity (A549 [10]): Dose-Dependent Effect | Tmax [11]: 1.8 min | Activity (A549 [12]): Active | AUCt [13]: 487 ng·h/mL | Activity (A549 [14]): Active | IC50 (Cytochrome P450 2C8): > 50 µM | half-life [15]: 1.13 h | inhibition at 1 h, 10 µM (hERG (KCNH2)): -18% | CLint [16]: 751 mL/min/kg | CLhep predicted [17]: 14.7 mL/min/kg | Activity (A549 [18]): Active | half-life [19]: 2.9 h | Activity (A549 [20]): Active | CLhep predicted [21]: 51.2 mL/min/kg | CLint [22]: 3080 mL/min/kg | AUC [23]: 811 ng·h/mL | Activity (A549 [24]): 72% | IC50 (Cytochrome P450 2D6): > 50 µM | inhibition (Heat shock protein HSP90 [25]): Tde | inhibition at 50 µM (CYP2D6): 84% | Activity (A549 [26]): Active | IC50 (Cytochrome P450 2C19): 7.8 µM | inhibition at 50 µM (CYP2C8): 54.3% | GI50 (NCI-H1975): 0.05 µM
